# Entries after “also recorded” stand apart in the source; their conditions may differ.
# Key:
# C57BL/6J mice [1] = experiment: Novelty-induced locomotion; format: in vivo; details: 1 mg/kg
# male C57BL/6J mice = experiment: Head-twitch antagonism of an LSD dose response (Transpharmation); format: in vivo; details: +JRT PreTx (1 mg/kg IP, 30 min prior) then VEH (1% DMSO); -JRT 0.7 ± 0.3
# [2] = test system: female C57BL/6J mice, medial prefrontal cortex; experiment: In vivo spinogenesis and synaptogenesis (S3EM, layer 1 mPFC); details: 24 h
# [3] = Pharmacokinetics studies (plasma and brain); format: in vivo, rats
# 5-HT2CR = target: T1, 5-HT2CR (Homo sapiens, UniProt P28335); experiment: IP1 functional assay (5-HT2CR); format: cell-based; details: 5-HT2C, IP1, agonist mode
# T1 construct: Epics Therapeutics S.A
# [4] = target: wild type human 5-HT2A receptor (psychLight2, PSYLI2 cells) (Homo sapiens, UniProt P28223); experiment: PsychLight assay, wild type; format: cell-based
# 5-HT5A = 5-HT5A (Homo sapiens, UniProt P47898); experiment: Functional assay at 5-HT5A (Fig. S4); format: cell-based
# Description: Figure S4. […] Radioligand binding (RLB) (top) and IP1 functional assays (bottom) for 5-HT1A (A), 5-HT5a (B), 5-HT6 (C), and 5-HT7 (D) receptors. Agonist or antagonist mode is indicated in the title of each graph. Data represent the mean ± SEM of 2 technical replicates.
# 5-carboxamidotryptamine; ND = not determined for incomplete curves.
# (§1) (1 picture or pasted object on this page, not shown here)
# [5] = test system: Thy1-EGFP mice, layer 2/3 of the mPFC; experiment: In vivo spinogenesis after chronic corticosterone administration; details: 24 h, mean ± SEM
# human 5-HT2B receptor = target: T2, human 5-HT2B receptor (Homo sapiens, UniProt P41595); experiment: IP1 functional assay (5-HT2BR); format: cell-based
# T2 construct: host or cells: CHO
# [6] = target: 5-HT2A receptor membrane preparations obtained from PSYLI2 cells (Homo sapiens, UniProt P28223); experiment: Ligand binding kinetics with [3H]-LSD on PSYLI2 membrane preparations; details: kinetics of competition binding vs [3H]-LSD
# [7] = target: T3, human ether-a-go-go related gene (hERG) channels (Homo sapiens, UniProt Q12809); experiment: hERG inhibition assay (Apconix); format: biochemical
# T3 construct: Apconix
# Experimental: as §1
# Comparison Between WT and S242A5.46 psychLight Variants. Activity in WT and S242A5.46 mutant forms of PsychLight was quantified by deriving ligand activity ratios (log(Emax/EC50)). […]
# and (+)-JRT were fit to a log(agonist) vs. response (three parameters) curve. The Emax/EC50 analysis was performed as previously described in detail by others (16):
# Response = Basal + E!"# − Basal where Emax and Basal represent the top and bottom asymptotes of the curve fit, respectively; EC50 represents the concentration that gives a response halfway between Emax and Basal; and Log[A] is the logarithm of the agonist concentration. Then, ligand activity ratios, log(Emax/EC50) were calculated for each test ligand and statistical comparisons made between each other and between genotypes using a two-way ANOVA and significant interaction effects followed by a Šídák's multiple comparisons test.
# ADME and hERG Inhbition Assays. […]
# Briefly, 96 well plates were coated with poly-D-lysine and approximately 15,000 cells/well. […] Images were analyzed using the Simple Neurite Tracer and Sholl analysis plug-ins for ImageJ Fiji (version 1.51N). […] All images were taken and analyzed by an experimenter blinded to treatment conditions.
# Spinogenesis Assays Using Cultured Rat Cortical Neurons. […] Images were analyzed using ImageJ Fiji (version 1.51N). […]
# C57BL/6J mice [8] = experiment: Head-twitch response (HTR) assay; format: in vivo; details: (+)-JRT 1 mg/kg IP pretreatment 15 min + LSD 0.2 mg/kg IP; mean ± SEM
# T3 sequence (Q12809 whole entry): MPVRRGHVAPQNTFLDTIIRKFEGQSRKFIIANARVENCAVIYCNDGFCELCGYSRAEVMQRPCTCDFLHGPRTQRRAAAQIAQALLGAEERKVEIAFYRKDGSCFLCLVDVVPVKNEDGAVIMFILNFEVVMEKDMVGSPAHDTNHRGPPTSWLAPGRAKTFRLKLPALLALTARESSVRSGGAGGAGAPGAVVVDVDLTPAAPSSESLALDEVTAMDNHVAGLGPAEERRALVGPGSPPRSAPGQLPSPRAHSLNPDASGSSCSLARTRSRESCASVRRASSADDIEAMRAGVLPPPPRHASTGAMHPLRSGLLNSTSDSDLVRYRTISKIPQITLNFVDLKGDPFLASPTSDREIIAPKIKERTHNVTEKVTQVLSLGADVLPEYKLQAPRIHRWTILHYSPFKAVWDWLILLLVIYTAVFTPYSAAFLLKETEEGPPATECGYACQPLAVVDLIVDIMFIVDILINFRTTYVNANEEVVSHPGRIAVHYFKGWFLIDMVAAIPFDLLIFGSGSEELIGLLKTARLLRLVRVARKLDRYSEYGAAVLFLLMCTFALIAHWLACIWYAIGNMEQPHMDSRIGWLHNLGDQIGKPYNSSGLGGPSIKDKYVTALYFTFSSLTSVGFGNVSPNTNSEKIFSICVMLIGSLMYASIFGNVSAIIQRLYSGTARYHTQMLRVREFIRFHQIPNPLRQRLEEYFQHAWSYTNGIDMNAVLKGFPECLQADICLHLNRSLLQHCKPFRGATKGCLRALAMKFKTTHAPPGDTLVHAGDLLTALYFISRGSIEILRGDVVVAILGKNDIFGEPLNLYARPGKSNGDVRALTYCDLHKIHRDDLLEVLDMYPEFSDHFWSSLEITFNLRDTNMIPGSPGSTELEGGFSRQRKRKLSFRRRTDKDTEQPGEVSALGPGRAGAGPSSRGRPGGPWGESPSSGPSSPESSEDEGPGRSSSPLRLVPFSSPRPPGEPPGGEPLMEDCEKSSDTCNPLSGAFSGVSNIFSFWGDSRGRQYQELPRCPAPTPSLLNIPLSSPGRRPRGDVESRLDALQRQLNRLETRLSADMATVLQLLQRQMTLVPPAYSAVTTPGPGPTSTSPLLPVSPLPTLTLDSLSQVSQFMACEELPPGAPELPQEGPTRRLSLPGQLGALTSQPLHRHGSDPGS
# Chain of wild type human 5-HT2A receptor (psychLight2, PSYLI2 cells) (P28223 with tags, fused parts or gaps): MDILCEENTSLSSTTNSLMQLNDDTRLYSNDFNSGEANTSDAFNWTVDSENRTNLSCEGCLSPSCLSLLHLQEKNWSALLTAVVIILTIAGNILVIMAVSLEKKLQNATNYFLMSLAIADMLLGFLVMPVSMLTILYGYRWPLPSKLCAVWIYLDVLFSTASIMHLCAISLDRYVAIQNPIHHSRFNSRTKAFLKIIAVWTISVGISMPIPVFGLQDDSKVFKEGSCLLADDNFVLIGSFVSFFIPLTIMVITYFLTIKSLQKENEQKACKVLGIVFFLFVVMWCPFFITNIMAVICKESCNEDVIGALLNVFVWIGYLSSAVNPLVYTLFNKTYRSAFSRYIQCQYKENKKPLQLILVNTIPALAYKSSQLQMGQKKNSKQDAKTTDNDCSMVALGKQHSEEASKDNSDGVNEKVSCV
# Chain of wild type human 5-HT2A receptor (psychLight2, PSYLI2 cells) (P42212 with tags, fused parts or gaps partner): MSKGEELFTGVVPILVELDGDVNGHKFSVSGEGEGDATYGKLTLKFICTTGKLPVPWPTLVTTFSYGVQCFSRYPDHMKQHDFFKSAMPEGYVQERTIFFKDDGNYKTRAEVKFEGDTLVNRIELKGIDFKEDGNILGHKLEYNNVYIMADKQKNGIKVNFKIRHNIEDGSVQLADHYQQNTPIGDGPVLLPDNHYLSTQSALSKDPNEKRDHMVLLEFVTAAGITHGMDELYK
# T1 sequence (P28335 33-458): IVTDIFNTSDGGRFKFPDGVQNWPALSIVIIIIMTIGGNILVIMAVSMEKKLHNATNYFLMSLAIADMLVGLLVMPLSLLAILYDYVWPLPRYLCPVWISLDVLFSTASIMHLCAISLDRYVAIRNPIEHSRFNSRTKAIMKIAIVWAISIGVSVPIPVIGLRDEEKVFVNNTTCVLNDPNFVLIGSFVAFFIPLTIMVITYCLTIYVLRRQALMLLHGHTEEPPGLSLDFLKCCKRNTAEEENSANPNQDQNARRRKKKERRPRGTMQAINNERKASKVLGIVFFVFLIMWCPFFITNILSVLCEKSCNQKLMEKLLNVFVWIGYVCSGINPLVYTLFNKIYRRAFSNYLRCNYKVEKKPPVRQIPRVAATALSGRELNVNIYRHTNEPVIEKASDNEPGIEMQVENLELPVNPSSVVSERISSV
# Chain of 5-HT5A (P47898 whole entry): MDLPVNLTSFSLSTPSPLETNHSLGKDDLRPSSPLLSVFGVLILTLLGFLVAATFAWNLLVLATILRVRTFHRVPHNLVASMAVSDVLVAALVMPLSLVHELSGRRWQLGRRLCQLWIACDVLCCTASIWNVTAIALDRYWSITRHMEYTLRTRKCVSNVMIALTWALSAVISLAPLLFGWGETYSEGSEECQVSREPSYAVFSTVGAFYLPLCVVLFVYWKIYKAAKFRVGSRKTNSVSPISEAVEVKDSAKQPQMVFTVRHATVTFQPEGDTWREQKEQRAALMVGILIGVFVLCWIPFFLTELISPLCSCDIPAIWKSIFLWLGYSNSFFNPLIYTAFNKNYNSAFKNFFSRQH
# T2 sequence (P41595 whole entry): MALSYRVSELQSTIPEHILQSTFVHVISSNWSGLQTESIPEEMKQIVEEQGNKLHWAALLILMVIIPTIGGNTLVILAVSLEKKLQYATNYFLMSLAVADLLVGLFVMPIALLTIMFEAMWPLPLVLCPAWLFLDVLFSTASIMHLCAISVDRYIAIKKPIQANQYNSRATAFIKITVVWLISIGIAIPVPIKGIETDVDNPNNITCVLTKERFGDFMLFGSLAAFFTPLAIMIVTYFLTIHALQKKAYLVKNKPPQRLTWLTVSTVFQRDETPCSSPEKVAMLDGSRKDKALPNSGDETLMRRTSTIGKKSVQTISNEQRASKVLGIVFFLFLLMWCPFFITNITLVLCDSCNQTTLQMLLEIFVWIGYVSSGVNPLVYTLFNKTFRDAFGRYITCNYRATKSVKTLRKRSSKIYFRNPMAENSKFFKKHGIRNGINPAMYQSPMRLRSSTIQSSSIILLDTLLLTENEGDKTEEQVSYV
# Chain of 5-HT2A receptor membrane preparations obtained from PSYLI2 cells (P28223 1-263 limits assumed): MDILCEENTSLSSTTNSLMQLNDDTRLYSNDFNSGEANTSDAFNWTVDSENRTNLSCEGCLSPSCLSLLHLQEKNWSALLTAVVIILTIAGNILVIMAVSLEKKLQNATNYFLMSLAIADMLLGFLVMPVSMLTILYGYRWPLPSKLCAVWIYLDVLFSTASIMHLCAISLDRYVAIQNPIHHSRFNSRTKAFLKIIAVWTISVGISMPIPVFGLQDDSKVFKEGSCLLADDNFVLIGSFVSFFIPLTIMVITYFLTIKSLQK
# Chain of 5-HT2A receptor membrane preparations obtained from PSYLI2 cells (P28223 316-471 limits assumed): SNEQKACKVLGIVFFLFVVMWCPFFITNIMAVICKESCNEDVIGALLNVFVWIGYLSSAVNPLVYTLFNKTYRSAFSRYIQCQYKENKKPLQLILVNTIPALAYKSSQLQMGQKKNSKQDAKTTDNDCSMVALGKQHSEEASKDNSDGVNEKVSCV
smiles,measurement,setting,value
CCN(CC)C(=O)[C@@H]1C=C2c3cccc4ccn(c34)C[C@H]2N(C)C1 [(+)-JRT],Effect on locomotion,C57BL/6J mice [1]; novel arena 30 min,does not impact locomotion
same,Serotonin syndrome-like responses,"C57BL/6J mice [1]; backward walking, forepaw treading, hind limb abduction, low body posture, Straub tail, tremor","does not impact locomotion (SI Appendix, Fig. S10) or produce any serotonin syndrome-like responses"
same,Head-twitch response over 20 min (Figure S9),male C57BL/6J mice,3.9 ± 0.567
same,Synapse size,[2]; 1 mg/kg IP,remained unchanged
same,Increase in synapse density within the mPFC,"[2]; single administration 1 mg/kg IP, S3EM",18%
same,Increase in dendritic spine density within the mPFC,"[2]; single administration 1 mg/kg IP, layer 1, S3EM",46%
same,Presence in rat brain and plasma within 2 h,[3]; 1 mg/kg IP dose,nearly absent
same,Levels in plasma or brain at 4 h,"[3]; 1 mg/kg IP, (+)-JRT fumarate, rats",below the limit of quantification
same,Brain concentration relative to the Ki at the 5-HT2AR,"[3]; 1 mg/kg, rat",~ 20 fold
same,Emax,5-HT2CR,89%
same,EC50,[4],90 nM
same,Emax,[4]; read-out: psychLight (WT): EMax,33%
same,Functional activity at 5-HT5A,5-HT5A,antagonist
same,"Dendritic spine density, layer 2/3 mPFC (Table S1, matches Fig. 4N)","[5]; GH (gentle handling) + JRT 1 mg/kg IP, GH VEH 12.17 ± 0.5278",11.36 ± 0.8451
same,"Dendritic spine density, layer 2/3 mPFC (Table S1, matches Fig. 4N)",[5]; chronic CORT 20 d + JRT 1 mg/kg IP,10.77 ± 0.5664
same,Emax,human 5-HT2B receptor,48%
same,"Dissociation rate from the 5-HT2A receptor, fold faster than LSD",[6],approximately 10 fold
same,hERG channel inhibition,[7],does not inhibit hERG channels; also recorded: did not inhibit
same,Head-twitches over 20 min (Figure 5A Antagonism),C57BL/6J mice [8],1.500 ± 0.3450
